Columns and labels:
[1] = tested on: Staphylococcus aureus (ATCC 29213); assay: Checkerboard combination / MIC assay with S. aureus ATCC 29213; type: cell-based
Summary of the method: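 CLSI broth microdilution checkerboard in CAMHB, final inoculum 5×10^5 CFU/mL, 2% DMSO. Ramizol or Chlopam (11-point 2-fold) crossed with commercial antibiotics (7-point), each starting at 4× MIC; synergy assessed by FIC index (sum of MIC-in-combination/MIC-alone ratios; ≤0.5 synergy, >4 antagonism).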

MRSA strains = details: cited from earlier work
[2] = tested on: Staphylococcus aureus (BAA-1717); assay: Checkerboard combination / MIC assay with S. aureus BAA-1717 (MRSA); type: cell-based; details: for Effect of individual antibiotic combinations: S. aureus BAA-1717
Summary of the method: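 CLSI broth microdilution checkerboard in CAMHB (5×10^5 CFU/mL, 2% DMSO final). Ramizol or Chlopam was tested in 11-point two-fold series against 7-point antibiotic titrations, starting at 4× MIC.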

## CN[C@H](CC(C)C)C(=O)N[C@H]1C(=O)N[C@@H](CC(N)=O)C(=O)N[C@H]2C(=O)N[C@H]3C(=O)N[C@H](C(=O)N[C@H](C(=O)O)c4cc(O)cc(O)c4-c4cc3ccc4O)[C@H](O)c3ccc(c(Cl)c3)Oc3cc2cc(c3O[C@@H]2O[C@H](CO)[C@@H](O)[C@H](O)[C@H]2O[C@H]2C[C@](C)(N)[C@H](O)[C@H](C)O2)Oc2ccc(cc2Cl)[C@H]1O [Vancomycin]
[1]; Chlopam 0.003906 μg/mL + labelled antibiotic at MIC of same cell, S. aureus ATCC 29213
  FICI of combination with Chlopam: 1.0
[1]; Chlopam 0.003906 μg/mL, S. aureus ATCC 29213
  MIC of antibiotic in combination with Chlopam: 1 µg/mL
[1]; Chlopam 0.0078125 μg/mL + labelled antibiotic at MIC of same cell, S. aureus ATCC 29213
  FICI of combination with Chlopam: 1.0
[1]; Chlopam 0.0078125 μg/mL, S. aureus ATCC 29213
  MIC of antibiotic in combination with Chlopam: 1 µg/mL
[1]; Chlopam 0.015625 μg/mL + labelled antibiotic at MIC of same cell, S. aureus ATCC 29213
  FICI of combination with Chlopam: 1.0
[1]; Chlopam 0.015625 μg/mL, S. aureus ATCC 29213
  MIC of antibiotic in combination with Chlopam: 1 µg/mL
[1]; Chlopam 0.125 μg/mL + labelled antibiotic at MIC of same line, S. aureus ATCC 29213
  FICI of combination with Chlopam: 0.8
[1]; Chlopam 0.125 μg/mL, S. aureus ATCC 29213
  MIC of antibiotic in combination with Chlopam: 0.5 µg/mL
[1]; Chlopam 0.25 μg/mL + labelled antibiotic at MIC of same cell, S. aureus ATCC 29213
  FICI of combination with Chlopam: 1.0
[1]; Chlopam 0.25 μg/mL, S. aureus ATCC 29213
  MIC of antibiotic in combination with Chlopam: 0.5 µg/mL
[1]; Chlopam and Vancomycin: 0.003901 and 1, 0.0078125 and 1, 0.015625 and 1, 0.125 and 0.5, 0.25 and 0.5 μg/mL, S. aureus ATCC 29213
  Effect of individual antibiotic combinations: additive effect
[1]; Ramizol 0.015625 μg/mL + labelled antibiotic at MIC of same cell, S. aureus ATCC 29213
  FICI of combination with Ramizol: 1.0
[1]; Ramizol 0.015625 μg/mL, S. aureus ATCC 29213
  MIC of antibiotic in combination with Ramizol: 1 µg/mL
[1]; Ramizol 0.03125 μg/mL + labelled antibiotic at MIC of same cell, S. aureus ATCC 29213
  FICI of combination with Ramizol: 1.0
[1]; Ramizol 0.03125 μg/mL, S. aureus ATCC 29213
  MIC of antibiotic in combination with Ramizol: 1 µg/mL
[1]; Ramizol 0.0625 μg/mL + labelled antibiotic at MIC of same cell, S. aureus ATCC 29213
  FICI of combination with Ramizol: 1.0
[1]; Ramizol 0.0625 μg/mL, S. aureus ATCC 29213
  MIC of antibiotic in combination with Ramizol: 1 µg/mL
[1]; Ramizol 0.125 μg/mL + labelled antibiotic at MIC of same cell, S. aureus ATCC 29213
  FICI of combination with Ramizol: 1.0
[1]; Ramizol 0.125 μg/mL, S. aureus ATCC 29213
  MIC of antibiotic in combination with Ramizol: 1 µg/mL
[1]; Ramizol and Vancomycin: 0.015625 and 1, 0.03125 and 1, 0.0625 and 1, 0.125 and 1 μg/mL, S. aureus ATCC 29213
  Effect of individual antibiotic combinations: additive effect
[1]; Staphylococcus aureus, ATCC29213, read-out: MIC of antibiotic alone
  MIC: 1 µg/mL
[1]; Table 7, checkerboard series with Ramizol, S. aureus ATCC 29213
  MIC of antibiotic alone: 1 µg/mL
[1]; labelled antibiotic + Chlopam, S. aureus ATCC 29213
  Effect of the combinations with Chlopam (by mean FICI): additive effect
[1]; labelled antibiotic + Chlopam, mean of all pairwise combinations, S. aureus ATCC 29213
  mean FICI of combination with Chlopam: 1.0
[1]; labelled antibiotic + Ramizol, mean of all pairwise combinations, S. aureus ATCC 29213
  mean FICI of combination with Ramizol: 1.2
MRSA strains; MRSA strains fully resistant to vancomycin
  MIC: ≥ 32 µg/mL
MRSA strains; MRSA strains with decreased susceptibility to vancomycin
  minimum inhibitory concentration [MIC]: 4 to 8 µg/mL
[2]; Chlopam 0.001953 μg/mL + labelled antibiotic at MIC of same cell, S. aureus ATCC BAA-1717
  FICI of combination with Chlopam: 1.0
[2]; Chlopam 0.001953 μg/mL, S. aureus ATCC BAA-1717
  MIC of antibiotic in combination with Chlopam: 1 µg/mL
[2]; Chlopam 0.003906 μg/mL + labelled antibiotic at MIC of same cell, S. aureus ATCC BAA-1717
  FICI of combination with Chlopam: 1.0
[2]; Chlopam 0.003906 μg/mL, S. aureus ATCC BAA-1717
  MIC of antibiotic in combination with Chlopam: 1 µg/mL
[2]; Chlopam 0.0078125 μg/mL + labelled antibiotic at MIC of same cell, S. aureus ATCC BAA-1717
  FICI of combination with Chlopam: 1.0
[2]; Chlopam 0.0078125 μg/mL, S. aureus ATCC BAA-1717
  MIC of antibiotic in combination with Chlopam: 1 µg/mL
[2]; Chlopam 0.015625 μg/mL + labelled antibiotic at MIC of same cell, S. aureus ATCC BAA-1717
  FICI of combination with Chlopam: 1.0
[2]; Chlopam 0.015625 μg/mL, S. aureus ATCC BAA-1717
  MIC of antibiotic in combination with Chlopam: 1 µg/mL
[2]; Chlopam 0.5 μg/mL + labelled antibiotic at MIC of same line, S. aureus ATCC BAA-1717
  FICI of combination with Chlopam: 1.0
[2]; Chlopam 0.5 μg/mL, S. aureus ATCC BAA-1717
  MIC of antibiotic in combination with Chlopam: 0.031 µg/mL
[2]; Chlopam and Vancomycin: 0.001953 and 1, 0.003901 and 1, 0.0078125 and 1, 0.015625 and 1 μg/mL
  Effect of individual antibiotic combinations: additive effect
[2]; Ramizol 0.015625 μg/mL + labelled antibiotic at MIC of same cell, S. aureus ATCC BAA-1717
  FICI of combination with Ramizol: 1.0
[2]; Ramizol 0.015625 μg/mL, S. aureus ATCC BAA-1717
  MIC of antibiotic in combination with Ramizol: 1 µg/mL
[2]; Ramizol 0.03125 μg/mL + labelled antibiotic at MIC of same cell, S. aureus ATCC BAA-1717
  FICI of combination with Ramizol: 1.0
[2]; Ramizol 0.03125 μg/mL, S. aureus ATCC BAA-1717
  MIC of antibiotic in combination with Ramizol: 1 µg/mL
[2]; Ramizol 0.0625 μg/mL + labelled antibiotic at MIC of same cell, S. aureus ATCC BAA-1717
  FICI of combination with Ramizol: 1.0
[2]; Ramizol 0.0625 μg/mL, S. aureus ATCC BAA-1717
  MIC of antibiotic in combination with Ramizol: 1 µg/mL
[2]; Ramizol 0.125 μg/mL + labelled antibiotic at MIC of same line, S. aureus ATCC BAA-1717
  FICI of combination with Ramizol: 1.0
[2]; Ramizol 0.125 μg/mL, S. aureus ATCC BAA-1717
  MIC of antibiotic in combination with Ramizol: 1 µg/mL
[2]; Ramizol 4 μg/mL + labelled antibiotic at MIC of same cell, S. aureus ATCC BAA-1717
  FICI of combination with Ramizol: 1.0
[2]; Ramizol 4 μg/mL, S. aureus ATCC BAA-1717
  MIC of antibiotic in combination with Ramizol: 0.031 µg/mL
[2]; Ramizol and Vancomycin: 0.015625 and 1, 0.03125 and 1, 0.0625 and 1, 0.125 and 1, 4 and 0.031 μg/mL
  Effect of individual antibiotic combinations: additive effect
[2]; Staphylococcus aureus, ATCC BAA-1717 / BAA-1717, read-out: MIC of antibiotic alone
  MIC: 1 µg/mL
[2]; Table 7, checkerboard series with Ramizol, S. aureus ATCC BAA-1717
  MIC of antibiotic alone: 1 µg/mL
[2]; labelled antibiotic + Chlopam, mean of all pairwise combinations, S. aureus ATCC BAA-1717
  mean FICI of combination with Chlopam: 1.2
[2]; labelled antibiotic + Ramizol, mean of all pairwise combinations, S. aureus ATCC BAA-1717
  mean FICI of combination with Ramizol: 1.2

— patent publication US20190328691A1, “ANTIBIOTIC THERAPY” (Boulos & Cooper Pharmaceuticals Pty Ltd, priority 2015, published 2019)
